pIC50: −log10 of the molar value. Values joined by “and” are separate entries in the source; they are usually repeats but may differ in a detail not shown here. Equal entries are not always repeated. “Also recorded” adds a separate entry of the source.
Columns and labels:
[1] = Weight gain in growing male mice (about 25 grams); type: in vivo; details: similar dosing regimen, FIG. 2
Protocol: In a second experiment, growing male mice, about 25 grams, were administered either compound following a similar dosing regimen. As in the previous experiment, both compounds affected weight gain.

[2] = molecular target: Tyrosine-protein phosphatase non-receptor type 11 (Homo sapiens, UniProt Q06124); assay: Phosphatase panel, DiFMUP fluorescence assay; type: biochemical
[3] = Weight loss in ad lib fed mice (about 50 grams), i.p. every other day; type: in vivo, male Swiss Webster mice; details: i.p. 10 mg/kg every other day, food ad lib
From the text: Food was provided ad lib.
By 27 days both sets of treated mice had lost about 10% of their starting body weight.

stomach tissues = assay: Stomach RNA-sequencing, ENT-02 (MSI-1436) treatment and congruence with ENT-03 (Example 10); type: in vivo, mice
Protocol: Samples of stomach tissues from the mice were analysed by RNA-sequencing on an Illumina platform.
To achieve these aims, data were subject to a quality control evaluation, differential expression and functional enrichment analyses, as well as a congruence analysis.
[…] At this threshold, differentially expressed genes were identified in all contrasts.
As mentioned previously, for statistical robustness, only those with an adjusted p-value <0.05 should be considered. […]
The amount of overlap is represented in FIGS. 28A-28D. For each comparison, the value in the plot represents the number of intersecting selected genes and the color represents the Jaccard index (the intersection over the union) for the two contrasts under consideration.
Scatter plots, upset plots, venn diagrams, hypergeometric tests and Spearman rank correlation tests were employed to assess the level of overlap as shown in FIGS. 15-27.

hAPP-J20 mice = assay: Morris water maze, amyloid Alzheimer's model; type: in vivo; details: 2.5 mg/kg/wk i.p. over 6 weeks, vs vehicle treated littermates
From the text: (§1) The Morris water maze was used to test the effect of ENT-03 on spatial learning and memory deficits in 2 mouse models of familial Alzheimer's disease, hAPP-J20 mice that express a double mutant of the human amyloid precursor protein (Mucke et al., 2000), and PS19 mice that express the P301S mutant of the human microtubule associated protein tau (Yoshiyama et al., 2007).
(§2) hAPP-J20 mice expressing human APP bearing the Swedish and Indiana familial mutations (B6.Cg-Zbtb20Tg(PDGFB-APPSwInd)20Lms/2Mmjax, (Mucke et al., 2000)) and PS19 mice expressing the P301S mutation of human tau protein (B6;C3-Tg(Prnp-MAPT*P301S)PS19Vle/J (Yoshiyama et al., 2007)) were purchased from Jackson laboratories and maintained as colonies in the animal facility of the University of Ottawa. Heterozygous hAPP-J20 and PS19 mice were used. Genotypes were verified by PCR using genomic DNA isolated from tail or ear biopsies. […]
(§3) The Morris water maze test to analyze the ability of mice to learn and remember the location of a submerged platform in a pool containing opaque water was conducted in the Faculty of Medicine Behavior Core Laboratory at the University of Ottawa. […] On the probe day, crossings of the platform area and target quadrant were counted and swimming speed was measured using Ethovision automated video tracking software (Noldus).

PS19 mice = assay: Morris water maze, tau Alzheimer's model; type: in vivo; details: 2.5 mg/kg/wk i.p. over 6 weeks, vs vehicle treated littermates
From the text: as §1, §2, §3

[4] = tested on: stomach, jejunum and ileum; assay: GI tract transcriptome (RNAseq) after oral ENT-03, young vs aged mice; type: in vivo, C57bl/6 male mice
Protocol: Young (20 week) and aged (80 week) C57bl/6 male mice were administered ENT-03 (40 mg/kg) or vehicle (water) by oral gavage daily for 2 weeks. Over this period of time clinical observations were unremarkable as were the gross and microscopic examinations of the GI tract. The transcriptomes of the stomach, jejunum and ileum were analyzed by RNAseq technology. Comparative analyses of the transcripts from untreated animals identified numerous transcripts that differed in abundance between the corresponding tissues from old and young individuals. […] Thus, within these three distinct regions of the mouse GI tract, ageing is associated with changes in the transcriptome.
Statistical analysis of RNA-sequencing data was performed using R programming language. Transcripts with less than one read count per million reads in all samples of each tissue were removed. The raw count data for the samples were then normalised using trimmed mean of M-values normalisation and transformed with voom (Law et al., 2014), resulting in log 2-transformed counts per million with associated precision weights. […] Statistical comparisons were performed using linear modelling, as implemented in the Bioconductor package limma (Ritchie et al., 2015). Significance values (p-values) were adjusted for multiple testing using Benjamini-Hochberg procedure (Benjamini et al., 1995). For each comparison (e.g. group A versus group B), a positive log 2-transformed fold change indicates up-regulation in group A relative to group B.
To investigate the overlap between contrasts, the number of overlapping differentially expressed genes (defined using adjusted p-value <0.05) between all pairwise combinations of the comparisons performed were counted. For each comparison, the Jaccard index, defined as the intersection over the union, measures the similarity between the two contrasts under consideration. The p-value was calculated using a hypergeometric test taking into account the universe size under the assumption that the contrasts and genes are independent.

Tyrosine-protein phosphatase non-receptor type 11, sequence (Q06124 247-517): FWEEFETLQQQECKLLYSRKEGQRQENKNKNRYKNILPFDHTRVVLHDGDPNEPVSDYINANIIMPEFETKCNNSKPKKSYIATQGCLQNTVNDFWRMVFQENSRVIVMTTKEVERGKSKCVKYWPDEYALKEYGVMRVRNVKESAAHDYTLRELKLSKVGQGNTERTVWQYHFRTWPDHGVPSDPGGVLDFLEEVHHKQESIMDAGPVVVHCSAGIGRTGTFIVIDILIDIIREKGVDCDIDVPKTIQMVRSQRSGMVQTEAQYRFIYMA

CC(C)[C@@H](CC[C@@H](C)[C@H]1CC[C@H]2[C@@H]3[C@H](O)C[C@H]4C[C@@H](NCCCNCCCCNCCCN)CC[C@]4(C)[C@H]3CC[C@]12C)OS(=O)(=O)O (single isomer, unassigned) [ENT-02 (MSI-1436), trodusquemine]
effect on growth / weight gain [1]: suppressed growth as well as having induced consumption of body fat
pIC50 [2]: 6.43
effect on weight [3]: more severe decline
overlap of genes downregulated in aged mice with genes up-regulated by treatment in old mice (stomach tissues; hypergeometric P<0.0001): overlapped significantly
overlap of genes down-regulated in ageing and up-regulated in treatment with those of ENT-03 (stomach tissues; stomach, congruence analysis): did not overlap with those affected by ENT-03

CC(CCC[C@@H](C)[C@H]1CCC2C3C(CC[C@@]21C)[C@@]1(C)CC[C@H](NCCCNCCCCNCCCN)C[C@@H]1C[C@H]3O)C(=O)O (single isomer, unassigned) [ENT-03]
learning during the training phase (latency to find the hidden platform) (hAPP-J20 mice): improved; also recorded: decreased the latency to find the hidden platform
memory on the probe day (platform area crossings, time in platform area) (hAPP-J20 mice): improved memory
effect on growth / weight gain [1]: continued normal growth
learning during the training phase (PS19 mice): improved
memory on the probe day (PS19 mice): improved
clinical observations, gross and microscopic examinations of the GI tract ([4]; 40 mg/kg oral gavage daily for 2 weeks, young and aged mice): unremarkable
genes differentially expressed on treatment ([4]; ileum, aged mice): 1162 genes
genes differentially expressed on treatment ([4]; ileum, young mice): 80 genes
genes whose expression changed significantly in response to exposure ([4]; jejunum and ileum, both young and aged mice): no more than 2 genes
genes differentially expressed on treatment ([4]; jejunum, aged mice): 382 genes
genes differentially expressed on treatment ([4]; jejunum, young mice): 42 genes
genes down-regulated in ageing that are up-regulated by treatment in old mice ([4]; stomach): 37 genes and 36 genes
genes differentially expressed on treatment (p(adj)<0.05) ([4]; stomach, aged mice): 63 genes
ageing genes further down regulated in the ageing direction by treatment ([4]; stomach, young mice): 12 genes
genes differentially expressed on treatment (p(adj)<0.05) ([4]; stomach, young mice (20 weeks)): 13 genes
pIC50 [2]: 5.30
effect on weight [3]: weight loss with kinetics similar to that seen following administration of ENT-02
gradual recovery to the starting weight by [3]: ~45 days
nadir of weight decrease [3]: ~16 days
starting body weight lost by 27 days [3]: about 10%

Reference: patent US20250228873A1, “C25 R AND S ISOMERS OF AMINOSTEROLS AND METHODS OF MAKING AND USING THE SAME” (Enterin, Inc., priority 2022, published 2025)
